Data on 56 molecules can be found in patent EP1247803A2, “Indolinone compounds suitable for modulation of protein kinases” (Sugen, Inc., priority 1996, dated 1998).

The target in this assay is T1, EGFR (Homo sapiens, UniProt P00533).
T1 construct: Add 7 ug A431 cell lysate per well (EGFR source); endogenous in cells; host or cells: A431
T1 sequence (P00533 25-1210): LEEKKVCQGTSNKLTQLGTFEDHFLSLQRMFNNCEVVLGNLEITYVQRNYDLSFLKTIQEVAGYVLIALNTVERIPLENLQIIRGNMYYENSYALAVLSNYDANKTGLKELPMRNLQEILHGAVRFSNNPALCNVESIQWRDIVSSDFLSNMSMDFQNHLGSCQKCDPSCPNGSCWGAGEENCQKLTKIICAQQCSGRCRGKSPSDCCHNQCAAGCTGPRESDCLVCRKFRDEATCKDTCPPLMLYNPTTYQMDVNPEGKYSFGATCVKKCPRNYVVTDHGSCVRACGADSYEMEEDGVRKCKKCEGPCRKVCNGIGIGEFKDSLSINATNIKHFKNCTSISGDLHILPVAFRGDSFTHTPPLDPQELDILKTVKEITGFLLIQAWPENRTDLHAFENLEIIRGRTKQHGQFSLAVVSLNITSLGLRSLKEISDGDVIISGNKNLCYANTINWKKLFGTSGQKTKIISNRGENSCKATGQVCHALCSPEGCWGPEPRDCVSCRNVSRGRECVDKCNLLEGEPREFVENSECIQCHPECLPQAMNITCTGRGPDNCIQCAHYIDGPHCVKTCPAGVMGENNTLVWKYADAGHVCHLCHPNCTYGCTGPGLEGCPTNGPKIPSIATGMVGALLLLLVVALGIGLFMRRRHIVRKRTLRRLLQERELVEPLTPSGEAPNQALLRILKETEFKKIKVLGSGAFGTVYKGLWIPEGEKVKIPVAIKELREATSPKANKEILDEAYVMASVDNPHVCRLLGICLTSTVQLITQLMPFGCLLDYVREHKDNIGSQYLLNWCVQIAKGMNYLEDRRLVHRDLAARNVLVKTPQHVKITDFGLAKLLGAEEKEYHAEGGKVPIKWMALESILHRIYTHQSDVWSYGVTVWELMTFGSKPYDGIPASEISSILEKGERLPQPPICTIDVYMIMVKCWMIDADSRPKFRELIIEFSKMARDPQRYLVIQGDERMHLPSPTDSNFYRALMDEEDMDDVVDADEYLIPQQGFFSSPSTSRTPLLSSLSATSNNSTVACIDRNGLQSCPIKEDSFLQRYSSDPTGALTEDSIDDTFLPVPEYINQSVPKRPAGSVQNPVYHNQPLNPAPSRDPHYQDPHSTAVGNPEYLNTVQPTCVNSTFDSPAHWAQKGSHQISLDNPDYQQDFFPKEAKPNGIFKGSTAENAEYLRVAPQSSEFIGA
In words: EGFR ELISA assay (in vitro kinase activity, EGFR captured from A431 cell lysate). The format is biochemical. Also noted: concentration or dose not given beside the values. The procedure, abridged:
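EGFR from A431 lysate was captured on plates coated with anti-EGFR antibody. Compounds were added 30 min before a 5 min phosphorylation with 3 µM ATP/5 mM MnCl2, which was stopped with 20 mM EDTA. Phosphotyrosine was detected with rabbit anti-phosphotyrosine, then a peroxidase-conjugated secondary and ABTS/H2O2, read at 410 nm.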
Consider `COc1c(Br)cc(C=C2C(=O)Nc3ccc(S(=O)(=O)N4CCOCC4)cc32)cc1C(C)(C)C` [10732/F07], for which the “Biochem EGFR %Inhibition” value was -12.5%.
As to `CC(C)(C)c1cc(C=C2C(=O)Nc3ccc(S(=O)(=O)N4CCOCC4)cc32)cc(Br)c1OCc1ccccc1` [10732/F08], the “Biochem EGFR %Inhibition” value is recorded as -11.9%.
Turning to `COc1c(Cl)cc(C=C2C(=O)Nc3ccc(S(=O)(=O)N4CCOCC4)cc32)cc1C(C)(C)C` [10732/F09], the “Biochem EGFR %Inhibition” value is -13.4%.
Then `CC(C)(C)c1cc(C=C2C(=O)Nc3ccc(S(=O)(=O)N4CCOCC4)cc32)cc(Cl)c1OCc1ccccc1` [10732/F10], with 0.8%.
With `COc1c(I)cc(C=C2C(=O)Nc3ccc(S(=O)(=O)N4CCOCC4)cc32)cc1C(C)(C)C` [10732/F11] the figure was -21.5%; with `O=C1Nc2ccc(CCCl)cc2C1=CC(c1cccs1)C(F)(F)F` (centres unmarked) [10732/G02], -0.7%; with `COc1c(C(C)C)cc(C=C2C(=O)Nc3ccc(CCCl)cc32)cc1C(C)C` [10732/G03], -20.0%.
Regarding `CC(C)c1cc(C=C2C(=O)Nc3ccc(CCCl)cc32)cc(C(C)C)c1Oc1ccccc1` [10732/G04], the “Biochem EGFR %Inhibition” value amounted to 8.0%.
As for `COc1ccc(C=C2C(=O)Nc3ccc(CCCl)cc32)cc1C(C)(C)C` [10732/G05], the “Biochem EGFR %Inhibition” value is 3.8%.
In the case of `CC(C)(C)c1cc(C=C2C(=O)Nc3ccc(CCCl)cc32)ccc1OCc1ccccc1` [10732/G06], the “Biochem EGFR %Inhibition” value was -12.1%.
`COc1c(Br)cc(C=C2C(=O)Nc3ccc(CCCl)cc32)cc1C(C)(C)C` [10732/G07]: the “Biochem EGFR %Inhibition” value was -21.9%.
Take `CC(C)(C)c1cc(C=C2C(=O)Nc3ccc(CCCl)cc32)cc(Br)c1OCc1ccccc1` [10732/G08]: the “Biochem EGFR %Inhibition” value is given as -20.4%.
Turning to `COc1c(Cl)cc(C=C2C(=O)Nc3ccc(CCCl)cc32)cc1C(C)(C)C` [10732/G09], the “Biochem EGFR %Inhibition” value was -34.8%.
As to `CC(C)(C)c1cc(C=C2C(=O)Nc3ccc(CCCl)cc32)cc(Cl)c1OCc1ccccc1` [10732/G10], the “Biochem EGFR %Inhibition” value was -38.2%.
With `COc1c(I)cc(C=C2C(=O)Nc3ccc(CCCl)cc32)cc1C(C)(C)C` [10732/G11] the figure was -33.7%; with `CC(C)(C)c1cc(C=C2C(=O)Nc3c(Br)cc(Br)cc32)cc(I)c1OCc1ccccc1` [10733/A02], 25.9%; with `COc1c([N+](=O)[O-])cc(C=C2C(=O)Nc3c(Br)cc(Br)cc32)cc1C(C)(C)C` [10733/A03], 33.6%.
Regarding `COc1c(C(C)(C)C)cc(C=C2C(=O)Nc3c(Br)cc(Br)cc32)cc1C(C)(C)C` [10733/A04], the “Biochem EGFR %Inhibition” value came out at 32.8%.
As to `CC(C)(C)c1cc(C=C2C(=O)Nc3c(Br)cc(Br)cc32)cc(C(C)(C)C)c1OCc1ccccc1` [10733/A05], the “Biochem EGFR %Inhibition” value is listed as 55.2%.
With `COc1c(C)cc(C=C2C(=O)Nc3c(Br)cc(Br)cc32)cc1C` [10733/A06] the figure was 45.1%; with `Cc1cc(C=C2C(=O)Nc3c(Br)cc(Br)cc32)cc(C)c1OCc1ccccc1` [10733/A07], 28.5%.
As for `COc1cc(Br)cc(C=C2C(=O)Nc3c(Br)cc(Br)cc32)c1O` [10733/A08], the “Biochem EGFR %Inhibition” value is on record as 19.5%.
Regarding `O=C1Nc2c(Br)cc(Br)cc2C1=Cc1cc(Br)ccc1O` [10733/A09], the “Biochem EGFR %Inhibition” value amounted to 25.9%.
`O=C1Nc2c(Br)cc(Br)cc2C1=Cc1cc([N+](=O)[O-])ccc1O` [10733/A10]: the “Biochem EGFR %Inhibition” value is listed as 14.2%.
Take `COc1c(O)ccc(C=C2C(=O)Nc3c(Br)cc(Br)cc32)c1[N+](=O)[O-]` [10733/A11]: the “Biochem EGFR %Inhibition” value is recorded as 23.0%.
Take `CC(C)(C)c1cc(C=C2C(=O)Nc3ccc(I)cc32)cc(I)c1OCc1ccccc1` [10733/B02]: the “Biochem EGFR %Inhibition” value is 31.6%.
For the molecule `COc1c([N+](=O)[O-])cc(C=C2C(=O)Nc3ccc(I)cc32)cc1C(C)(C)C` [10733/B03], the “Biochem EGFR %Inhibition” value came to 14.4%.
Take `COc1c(C(C)(C)C)cc(C=C2C(=O)Nc3ccc(I)cc32)cc1C(C)(C)C` [10733/B04]: the “Biochem EGFR %Inhibition” value is on record as 28.5%.
As for `CC(C)(C)c1cc(C=C2C(=O)Nc3ccc(I)cc32)cc(C(C)(C)C)c1OCc1ccccc1` [10733/B05], the “Biochem EGFR %Inhibition” value turned out to be 26.7%.
For the molecule `COc1c(C)cc(C=C2C(=O)Nc3ccc(I)cc32)cc1C` [10733/B06], the “Biochem EGFR %Inhibition” value amounted to 43.6%.
With `Cc1cc(C=C2C(=O)Nc3ccc(I)cc32)cc(C)c1OCc1ccccc1` [10733/B07] the figure was 32.7%.
As for `COc1cc(Br)cc(C=C2C(=O)Nc3ccc(I)cc32)c1O` [10733/B08], the “Biochem EGFR %Inhibition” value is given as 32.5%.
Regarding `O=C1Nc2ccc(I)cc2C1=Cc1cc(Br)ccc1O` [10733/B09], the “Biochem EGFR %Inhibition” value turned out to be 21.1%.
In the case of `O=C1Nc2ccc(I)cc2C1=Cc1cc([N+](=O)[O-])ccc1O` [10733/B10], the “Biochem EGFR %Inhibition” value came to 11.8%.
In the case of `COc1c(O)ccc(C=C2C(=O)Nc3ccc(I)cc32)c1[N+](=O)[O-]` [10733/B11], the “Biochem EGFR %Inhibition” value worked out at 12.5%.
For the molecule `Cc1c(Br)ccc2c1C(=Cc1cc(I)c(OCc3ccccc3)c(C(C)(C)C)c1)C(=O)N2` [10733/C02], the “Biochem EGFR %Inhibition” value turned out to be 31.6%.
On to `COc1c([N+](=O)[O-])cc(C=C2C(=O)Nc3ccc(Br)c(C)c32)cc1C(C)(C)C` [10733/C03], for which the “Biochem EGFR %Inhibition” value is 14.4%.
For `COc1c(C(C)(C)C)cc(C=C2C(=O)Nc3ccc(Br)c(C)c32)cc1C(C)(C)C` [10733/C04], the “Biochem EGFR %Inhibition” value was 29.0%.
For `Cc1c(Br)ccc2c1C(=Cc1cc(C(C)(C)C)c(OCc3ccccc3)c(C(C)(C)C)c1)C(=O)N2` [10733/C05], the “Biochem EGFR %Inhibition” value was 17.2%.
Take `COc1c(C)cc(C=C2C(=O)Nc3ccc(Br)c(C)c32)cc1C` [10733/C06]: the “Biochem EGFR %Inhibition” value was 22.7%.
For `Cc1cc(C=C2C(=O)Nc3ccc(Br)c(C)c32)cc(C)c1OCc1ccccc1` [10733/C07], the “Biochem EGFR %Inhibition” value was 16.7%.
As to `COc1cc(Br)cc(C=C2C(=O)Nc3ccc(Br)c(C)c32)c1O` [10733/C08], the “Biochem EGFR %Inhibition” value turned out to be 65.8%.
Regarding `Cc1c(Br)ccc2c1C(=Cc1cc(Br)ccc1O)C(=O)N2` [10733/C09], the “Biochem EGFR %Inhibition” value is 46.0%.
Then `Cc1c(Br)ccc2c1C(=Cc1cc([N+](=O)[O-])ccc1O)C(=O)N2` [10733/C10], with 36.0%; and `COc1c(O)ccc(C=C2C(=O)Nc3ccc(Br)c(C)c32)c1[N+](=O)[O-]` [10733/C11], with 15.8%.
Turning to `CNS(=O)(=O)c1ccc2c(c1)C(=Cc1cc(I)c(OCc3ccccc3)c(C(C)(C)C)c1)C(=O)N2` [10733/D02], the “Biochem EGFR %Inhibition” value is 12.5%.
For the molecule `CNS(=O)(=O)c1ccc2c(c1)C(=Cc1cc([N+](=O)[O-])c(OC)c(C(C)(C)C)c1)C(=O)N2` [10733/D03], the “Biochem EGFR %Inhibition” value came to 11.2%.
Then `CNS(=O)(=O)c1ccc2c(c1)C(=Cc1cc(C(C)(C)C)c(OC)c(C(C)(C)C)c1)C(=O)N2` [10733/D04], with 19.9%; and `CNS(=O)(=O)c1ccc2c(c1)C(=Cc1cc(C(C)(C)C)c(OCc3ccccc3)c(C(C)(C)C)c1)C(=O)N2` [10733/D05], with 10.6%; and `CNS(=O)(=O)c1ccc2c(c1)C(=Cc1cc(C)c(OC)c(C)c1)C(=O)N2` [10733/D06], with 30.8%.
Turning to `CNS(=O)(=O)c1ccc2c(c1)C(=Cc1cc(C)c(OCc3ccccc3)c(C)c1)C(=O)N2` [10733/D07], the “Biochem EGFR %Inhibition” value is 37.4%.
For the molecule `CNS(=O)(=O)c1ccc2c(c1)C(=Cc1cc(Br)cc(OC)c1O)C(=O)N2` [10733/D08], the “Biochem EGFR %Inhibition” value came to 38.3%.
Then `CNS(=O)(=O)c1ccc2c(c1)C(=Cc1cc(Br)ccc1O)C(=O)N2` [10733/D09], with 48.3%; and `CNS(=O)(=O)c1ccc2c(c1)C(=Cc1cc([N+](=O)[O-])ccc1O)C(=O)N2` [10733/D10], with 46.8%; and `CNS(=O)(=O)c1ccc2c(c1)C(=Cc1ccc(O)c(OC)c1[N+](=O)[O-])C(=O)N2` [10733/D11], with 33.7%.
As to `CC(C)(C)c1cc(C=C2C(=O)Nc3ccc(S(=O)(=O)Nc4ccc(C(F)(F)F)cc4)cc32)cc(I)c1OCc1ccccc1` [10733/E02], the “Biochem EGFR %Inhibition” value is -1.3%.
